# Results as given in ChEMBL document CHEMBL1201862, “PubChem BioAssay data set” (2004).
# The source made the active and inactive calls.
# Experiments:
# Vero [1] = assay: cells; assay type: functional, cell-based; details: Chlorocebus sabaeus
# BJ [2] = assay: growth inhibition of engineered Ras-driven BJ cells – cell-based, alamar blue fluorescence, cherrypicked samples, dose response (AID 2631); assay type: functional; details: Homo sapiens;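 further: confirmatory dose-response assay in RAS-dependent BJ fibroblasts engineered with TERT, LT and ST, with cytotoxicity read by fluorescence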
# Streptococcus = assay: GAS UMAA2166 growth inhibition – luminescence, BacTiterGlo, counter-screen for streptokinase expression inhibitor project, dose response (AID 1915); assay type: functional, organism-based;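 further: potency for reduction of bacterial viability or growth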
# BJ [3] = assay: BJ-TERT-LT-ST fibroblast viability loss – cell-based, RAS-independent, luminescence, dose response (AID 1935); assay type: functional; details: Homo sapiens;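 further: BJ fibroblasts immortalized with TERT plus LT and ST oncogenes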
# cells [4] = assay type: functional, cell-based
# [5] = MIN6 cell viability loss – mouse insulinoma, cytotoxicity control, dose response (AID 2122); assay type: functional;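 further: confirmatory high-throughput counterscreen run to flag cytotoxic compounds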
# [6] = Counterscreen for AddAB inhibitors: absorbance-based bacterial cell-based high throughput dose response assay for inhibitors of bacterial viability. [Related pubchem assays (depositor defined):AID435030, AID449728, AID449731, AID488942, AID488955, AID488956]; assay type: functional
# Vero [7] = assay: cells; assay type: functional; details: Chlorocebus sabaeus
# [8] = decrease of insulin promoter-GFP reporter – imaging, high-content screening, mouse beta cells (AID 1628); assay type: functional; details: MIN6
# Exodeoxyribonuclease V = Exodeoxyribonuclease V (Escherichia coli (strain K12), UniProt P04993+P07648+P08394); assay: RecBCD inhibition via phage-restricted bacterial growth – absorbance, V66 E. coli, mutant T4 phage, counter-screen for AddAB inhibitor project, dose response (AID 492957); assay type: functional, cell-based, Escherichia coli str. K-12 substr. MG1655
# Exodeoxyribonuclease V, sequence (P04993 whole entry): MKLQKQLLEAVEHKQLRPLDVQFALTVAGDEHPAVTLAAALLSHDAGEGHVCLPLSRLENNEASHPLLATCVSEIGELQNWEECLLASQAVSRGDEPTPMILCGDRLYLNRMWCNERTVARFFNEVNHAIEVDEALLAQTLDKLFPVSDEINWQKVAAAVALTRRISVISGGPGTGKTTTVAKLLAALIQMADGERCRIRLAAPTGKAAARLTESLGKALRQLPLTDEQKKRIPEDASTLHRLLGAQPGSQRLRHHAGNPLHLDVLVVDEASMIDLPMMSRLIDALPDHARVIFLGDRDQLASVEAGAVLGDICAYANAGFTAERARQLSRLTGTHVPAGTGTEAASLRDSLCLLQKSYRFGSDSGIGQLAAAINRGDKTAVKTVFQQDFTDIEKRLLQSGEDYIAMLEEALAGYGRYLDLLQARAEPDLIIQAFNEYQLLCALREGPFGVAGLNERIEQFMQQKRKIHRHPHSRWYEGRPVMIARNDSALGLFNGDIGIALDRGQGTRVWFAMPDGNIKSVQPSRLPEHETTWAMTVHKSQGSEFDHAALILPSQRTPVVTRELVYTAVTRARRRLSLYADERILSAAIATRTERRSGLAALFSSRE
# Exodeoxyribonuclease V, sequence (P07648 whole entry): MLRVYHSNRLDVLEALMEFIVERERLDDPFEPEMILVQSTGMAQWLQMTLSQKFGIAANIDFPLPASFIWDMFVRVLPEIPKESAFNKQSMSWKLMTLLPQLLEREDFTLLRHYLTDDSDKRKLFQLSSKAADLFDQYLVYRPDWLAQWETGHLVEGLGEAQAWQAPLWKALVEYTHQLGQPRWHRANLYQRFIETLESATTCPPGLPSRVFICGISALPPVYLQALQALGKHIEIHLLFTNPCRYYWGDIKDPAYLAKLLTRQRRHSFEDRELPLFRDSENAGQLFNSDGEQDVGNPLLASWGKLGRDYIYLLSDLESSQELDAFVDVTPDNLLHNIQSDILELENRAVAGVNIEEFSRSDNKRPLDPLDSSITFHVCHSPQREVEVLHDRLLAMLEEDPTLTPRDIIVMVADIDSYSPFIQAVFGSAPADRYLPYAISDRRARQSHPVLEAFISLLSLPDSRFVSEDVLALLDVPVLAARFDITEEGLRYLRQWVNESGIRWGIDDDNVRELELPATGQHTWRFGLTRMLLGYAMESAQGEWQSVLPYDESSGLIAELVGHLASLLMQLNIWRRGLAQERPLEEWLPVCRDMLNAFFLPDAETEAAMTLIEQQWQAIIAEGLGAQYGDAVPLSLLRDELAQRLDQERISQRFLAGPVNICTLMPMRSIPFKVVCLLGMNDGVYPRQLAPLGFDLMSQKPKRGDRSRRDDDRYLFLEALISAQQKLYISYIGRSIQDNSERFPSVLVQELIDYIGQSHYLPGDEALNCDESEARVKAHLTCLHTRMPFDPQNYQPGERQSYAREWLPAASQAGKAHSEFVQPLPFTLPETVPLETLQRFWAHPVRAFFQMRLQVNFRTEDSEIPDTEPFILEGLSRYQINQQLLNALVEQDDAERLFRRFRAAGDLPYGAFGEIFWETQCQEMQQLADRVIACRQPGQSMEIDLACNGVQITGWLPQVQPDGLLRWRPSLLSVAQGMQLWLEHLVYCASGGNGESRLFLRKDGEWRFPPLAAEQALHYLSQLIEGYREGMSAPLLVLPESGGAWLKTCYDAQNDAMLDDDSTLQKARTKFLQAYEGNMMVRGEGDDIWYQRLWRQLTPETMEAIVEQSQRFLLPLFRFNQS
# Exodeoxyribonuclease V, sequence (P08394 whole entry): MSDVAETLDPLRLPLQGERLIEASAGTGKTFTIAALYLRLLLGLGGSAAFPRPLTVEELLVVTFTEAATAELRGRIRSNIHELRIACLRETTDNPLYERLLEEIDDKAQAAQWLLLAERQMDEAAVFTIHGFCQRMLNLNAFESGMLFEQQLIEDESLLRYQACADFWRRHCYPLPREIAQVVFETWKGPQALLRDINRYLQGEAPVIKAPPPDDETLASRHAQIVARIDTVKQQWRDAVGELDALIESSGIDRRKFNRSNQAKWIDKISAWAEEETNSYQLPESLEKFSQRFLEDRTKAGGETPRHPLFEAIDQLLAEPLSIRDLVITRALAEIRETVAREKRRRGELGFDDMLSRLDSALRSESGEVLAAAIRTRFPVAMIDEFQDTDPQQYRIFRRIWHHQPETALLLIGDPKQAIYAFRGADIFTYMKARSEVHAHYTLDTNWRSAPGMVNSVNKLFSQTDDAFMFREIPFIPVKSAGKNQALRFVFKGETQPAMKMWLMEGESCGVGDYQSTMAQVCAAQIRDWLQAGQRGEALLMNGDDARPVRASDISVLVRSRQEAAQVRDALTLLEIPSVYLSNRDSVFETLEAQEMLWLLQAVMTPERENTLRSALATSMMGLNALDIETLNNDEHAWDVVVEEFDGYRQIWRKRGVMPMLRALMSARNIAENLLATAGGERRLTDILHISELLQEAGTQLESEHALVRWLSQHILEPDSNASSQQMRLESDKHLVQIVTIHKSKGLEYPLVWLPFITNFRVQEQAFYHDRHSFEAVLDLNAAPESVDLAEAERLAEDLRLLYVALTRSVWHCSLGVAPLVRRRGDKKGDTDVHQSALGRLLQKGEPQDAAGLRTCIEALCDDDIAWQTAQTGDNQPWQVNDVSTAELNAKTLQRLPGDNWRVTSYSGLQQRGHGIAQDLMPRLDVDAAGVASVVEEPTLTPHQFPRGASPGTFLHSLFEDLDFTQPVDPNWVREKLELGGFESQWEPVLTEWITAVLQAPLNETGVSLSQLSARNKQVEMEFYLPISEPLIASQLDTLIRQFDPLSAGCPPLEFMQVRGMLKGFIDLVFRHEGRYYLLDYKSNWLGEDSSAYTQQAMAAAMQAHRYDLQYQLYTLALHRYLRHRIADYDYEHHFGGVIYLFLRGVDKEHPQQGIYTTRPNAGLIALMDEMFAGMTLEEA
# BJ [9] = assay: cells; assay type: functional, cell-based; details: Homo sapiens
# [10] = luciferase reporter signal reduction – luminescence, H4-C neuroglioblastoma cells, dose response (AID 2458); assay type: functional, cell-based;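 further: H4 neuroglioblastoma cells stably carrying a luciferase reporter gene fusion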
# [11] = HEK-293T viability loss after treatment – luminescence, T-cell screen hits, cytotoxicity control for TCR NF-kB inhibitor project, dose response (AID 489026); assay type: functional, cell-based;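 further: cells exposed to compound about 14 hours before the viability readout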
# [12] = test system: Streptococcus sp. 'group A'; assay: Streptococcus pyogenes SK(-)GAS viability under kanamycin – luminescence, BacTiterGlo, confirmation, counter-screen for streptokinase expression inhibitor project, dose response (AID 1900); assay type: functional, organism-based
# [13] = alpha-synuclein stem-loop translation blockers – luminescence, H4 neuroglioblastoma cells, dose confirmation, confirmation (AID 2454); assay type: functional, cell-based;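 further: H4 neuroglioblastoma cells carrying an alpha-synuclein 5'UTR luciferase reporter; potency for inhibition of the luciferase signal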
# [14] = target: T1, Heat shock factor protein 1 (Mus musculus, UniProt P38532); assay: enhancement of HSF1-driven luciferase signal – cell-based, NIH3T3, luminescence, dose retest, confirmation (AID 435004); assay type: functional;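 further: stress induced by proteasome inhibitor MG132 added 30 min after compound; luciferase reporter driven by HSF1 response element in NIH3T3 cells; actives raise luminescence as potentiators of the MG132 stress response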
# T1 sequence (P38532 whole entry): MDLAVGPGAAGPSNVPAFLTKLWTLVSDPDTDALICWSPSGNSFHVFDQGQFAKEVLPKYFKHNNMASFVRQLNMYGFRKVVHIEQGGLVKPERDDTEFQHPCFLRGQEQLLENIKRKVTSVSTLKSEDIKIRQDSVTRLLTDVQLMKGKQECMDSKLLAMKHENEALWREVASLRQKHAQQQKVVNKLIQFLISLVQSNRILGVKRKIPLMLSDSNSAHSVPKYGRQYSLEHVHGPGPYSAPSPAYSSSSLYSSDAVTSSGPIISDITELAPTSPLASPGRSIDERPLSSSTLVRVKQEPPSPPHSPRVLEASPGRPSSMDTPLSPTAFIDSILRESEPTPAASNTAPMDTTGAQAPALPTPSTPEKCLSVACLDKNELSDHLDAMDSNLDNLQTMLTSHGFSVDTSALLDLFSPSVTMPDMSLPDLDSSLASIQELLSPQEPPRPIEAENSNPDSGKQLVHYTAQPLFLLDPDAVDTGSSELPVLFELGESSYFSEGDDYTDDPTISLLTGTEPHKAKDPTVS
# [15] = alpha-synuclein stem-loop luciferase translation blockers – H4 neuroglioma cells, luminescence, confirmation (AID 1988); assay type: functional, cell-based
# BJ [16] = assay: BJ-TERT fibroblast viability loss – cell-based, RAS-independent, luminescence, dose response (AID 1933); assay type: functional; details: Homo sapiens
# [17] = DRD fibroblast viability loss – cell-based, non-viral oncogenic, luminescence, dose response (AID 1934); assay type: functional; details: Homo sapiens
# [18] = target: Heat shock protein HSP 90-alpha (Homo sapiens, UniProt P07900); assay type: functional, organism-based
# [19] = luciferase reporter signal suppression in cells – H4 neuroglioma cells, luminescence, dose response (AID 1990); assay type: functional, cell-based
# [20] = Luminescence Cell-Based Dose Response HTS to Identify Inhibitors of 5'UTR Stem-Loop Driven Prion Protein mRNA Translation in H4 Neuroglioblastoma Cells. [Related pubchem assays: 1827 (Project Summary), 1813 (Primary HTS)]; assay type: functional
# Mu-type opioid receptor = Mu-type opioid receptor (Homo sapiens, UniProt P35372); assay: (§1) Counterscreen for agonists of heterodimerization of the mu 1 (OPRM1) and delta 1 (OPRD1) opioid receptors: Luminescence-based cell-based high throughput dose response assay to identify agonists of OPRM1 homodimerization.; assay type: functional
# Mu-type opioid receptor, sequence (P35372 whole entry): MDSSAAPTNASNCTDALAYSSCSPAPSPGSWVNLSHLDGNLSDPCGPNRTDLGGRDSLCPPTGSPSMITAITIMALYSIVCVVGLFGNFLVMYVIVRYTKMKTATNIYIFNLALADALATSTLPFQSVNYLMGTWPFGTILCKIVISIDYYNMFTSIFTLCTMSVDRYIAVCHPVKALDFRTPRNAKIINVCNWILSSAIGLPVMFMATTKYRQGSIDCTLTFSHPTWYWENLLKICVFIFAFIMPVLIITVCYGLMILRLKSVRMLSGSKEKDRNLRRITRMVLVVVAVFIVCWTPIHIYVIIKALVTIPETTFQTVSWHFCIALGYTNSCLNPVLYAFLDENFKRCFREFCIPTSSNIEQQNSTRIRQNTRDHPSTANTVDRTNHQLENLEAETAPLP
# [21] = target: 5-hydroxytryptamine receptor 5A (Homo sapiens, UniProt P47898); assay: Counterscreen for agonists of OPRM1-OPRD1 heterodimerization: luminescence-based cell-based high throughput dose response assay to identify agonists of 5-hydroxytryptamine (serotonin) 5A receptor (HTR5A). [Related pubchem assays (depositor defined):AID504326, AID504355, AID504692, AID504904, AID504905]; assay type: functional
# [22] = Vero E6 cell cytotoxicity, dose response, cytotoxicity control for non-replicating M. tuberculosis project, secondary assay (AID 492998); assay type: functional, VeroE6; details: Vero C1008
# [23] = loss of viability in HepG2 cells – cell-based, CellTiter-Glo, cherry-picked, cytotoxicity control for Shn3 inhibitor project, dose response (AID 624134); assay type: functional
# [24] = HepG2 cell cytotoxicity, dose response, cytotoxicity control for non-replicating M. tuberculosis project (AID 489018); assay type: functional; details: Mycobacterium tuberculosis
# [25] = target: T2, Short transient receptor potential channel 4 (Mus musculus, UniProt Q9QUQ5); assay: block of DAMGO-driven TRPC4 calcium entry – cell-based, HEK293 TRPC4/mu-opioid, Fluo-4 calcium, dose response (AID 434942); assay type: functional;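 further: potency of inhibitors blocking the TRPC4 calcium response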
# T2 sequence (Q9QUQ5 whole entry): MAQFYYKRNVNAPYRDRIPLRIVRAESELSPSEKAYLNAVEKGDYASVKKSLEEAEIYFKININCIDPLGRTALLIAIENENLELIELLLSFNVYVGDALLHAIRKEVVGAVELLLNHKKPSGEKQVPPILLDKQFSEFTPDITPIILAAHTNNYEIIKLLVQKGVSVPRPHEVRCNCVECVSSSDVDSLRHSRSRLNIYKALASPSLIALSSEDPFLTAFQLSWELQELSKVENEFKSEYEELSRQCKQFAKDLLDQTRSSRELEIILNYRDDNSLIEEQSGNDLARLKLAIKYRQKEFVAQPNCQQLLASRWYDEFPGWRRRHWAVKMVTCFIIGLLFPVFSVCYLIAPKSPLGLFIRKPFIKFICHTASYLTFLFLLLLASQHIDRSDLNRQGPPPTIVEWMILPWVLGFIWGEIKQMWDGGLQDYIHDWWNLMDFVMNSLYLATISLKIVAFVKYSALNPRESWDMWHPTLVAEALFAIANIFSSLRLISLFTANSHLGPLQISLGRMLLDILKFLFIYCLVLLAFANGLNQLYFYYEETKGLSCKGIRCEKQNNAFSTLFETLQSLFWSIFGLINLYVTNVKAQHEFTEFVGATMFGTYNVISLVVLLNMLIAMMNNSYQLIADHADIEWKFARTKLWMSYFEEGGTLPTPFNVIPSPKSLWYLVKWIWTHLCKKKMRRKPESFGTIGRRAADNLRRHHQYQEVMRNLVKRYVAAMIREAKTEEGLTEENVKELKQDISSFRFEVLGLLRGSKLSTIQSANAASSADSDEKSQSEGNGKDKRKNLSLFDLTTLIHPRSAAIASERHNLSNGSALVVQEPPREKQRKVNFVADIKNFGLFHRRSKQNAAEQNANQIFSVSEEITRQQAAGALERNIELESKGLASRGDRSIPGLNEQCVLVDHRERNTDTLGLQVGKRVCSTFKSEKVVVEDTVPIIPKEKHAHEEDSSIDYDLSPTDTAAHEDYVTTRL
# [26] = NIH3T3 cell viability loss – ATP luminescence, mouse fibroblasts, counter-screen, dose response (AID 2010); assay type: functional, cell-based;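 further: cells exposed to compound for about 90 hours before reading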
# [27] = target: T2, Short transient receptor potential channel 4; assay: calcium entry via TRPC4 opening agents – cell-based, HEK293 TRPC4/mu-opioid, Fluo-4 calcium, dose response (AID 434937); assay type: functional
# [28] = THP-1 cell cytotoxicity, dose response, cytotoxicity control for non-replicating M. tuberculosis project (AID 489025); assay type: functional
# [29] = target: Delta-type opioid receptor (Homo sapiens, UniProt P41143); assay: as §1, with “of OPRD1” for “of OPRM1”, “homodimerization. [Related pubchem assays (depositor defined):AID504326, AID504355, AID504692, AID504904, AID504905]” for “homodimerization.”; assay type: functional
# Delta-type opioid receptor, sequence (P41143 whole entry): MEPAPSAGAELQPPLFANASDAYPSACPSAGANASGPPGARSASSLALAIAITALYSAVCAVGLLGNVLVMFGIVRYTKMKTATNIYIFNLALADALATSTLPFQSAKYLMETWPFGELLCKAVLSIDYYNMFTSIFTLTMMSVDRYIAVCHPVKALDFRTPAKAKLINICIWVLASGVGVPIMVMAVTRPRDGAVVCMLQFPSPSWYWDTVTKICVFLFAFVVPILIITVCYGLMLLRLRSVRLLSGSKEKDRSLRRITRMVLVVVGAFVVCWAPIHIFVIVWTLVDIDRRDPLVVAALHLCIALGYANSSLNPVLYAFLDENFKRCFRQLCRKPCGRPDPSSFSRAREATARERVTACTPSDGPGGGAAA
# cells [30] = assay type: functional
# [31] = Trypanosoma cruzi growth suppression in host cells – NIH3T3 host cells, beta-gal luminescence, confirmation (AID 2044); assay type: functional, cell-based;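 further: intracellular parasites grown in NIH/3T3 mouse fibroblasts as host cells; luminescent beta-galactosidase reporter signal from transgenic T. cruzi replicating inside host cells; inhibitors lower the luminescence signal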
# [32] = non-specific 3'UTR reporter inhibition in Clone20-Shn3RL – cell-based, Renilla luciferase, cherry-picked, counter-screen for Shn3 inhibitor project, dose response (AID 624133); assay type: functional
# [33] = reduction of Shn3 3'UTR-driven luciferase in osteoblasts – cell-based, Clone20 osteoblasts, firefly luciferase, cherry-picked, dose response (AID 624132); assay type: functional;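 further: firefly luciferase luminescence from reporter carrying the Shn3 3'UTR in osteoblasts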
# [34] = target: Voltage-gated inwardly rectifying potassium channel KCNH2 (Homo sapiens, UniProt Q12809); details: Potency;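 further: confirmatory quantitative high-throughput screen measuring inhibition of hERG channel activity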
# Voltage-gated inwardly rectifying potassium channel KCNH2, sequence (Q12809 whole entry): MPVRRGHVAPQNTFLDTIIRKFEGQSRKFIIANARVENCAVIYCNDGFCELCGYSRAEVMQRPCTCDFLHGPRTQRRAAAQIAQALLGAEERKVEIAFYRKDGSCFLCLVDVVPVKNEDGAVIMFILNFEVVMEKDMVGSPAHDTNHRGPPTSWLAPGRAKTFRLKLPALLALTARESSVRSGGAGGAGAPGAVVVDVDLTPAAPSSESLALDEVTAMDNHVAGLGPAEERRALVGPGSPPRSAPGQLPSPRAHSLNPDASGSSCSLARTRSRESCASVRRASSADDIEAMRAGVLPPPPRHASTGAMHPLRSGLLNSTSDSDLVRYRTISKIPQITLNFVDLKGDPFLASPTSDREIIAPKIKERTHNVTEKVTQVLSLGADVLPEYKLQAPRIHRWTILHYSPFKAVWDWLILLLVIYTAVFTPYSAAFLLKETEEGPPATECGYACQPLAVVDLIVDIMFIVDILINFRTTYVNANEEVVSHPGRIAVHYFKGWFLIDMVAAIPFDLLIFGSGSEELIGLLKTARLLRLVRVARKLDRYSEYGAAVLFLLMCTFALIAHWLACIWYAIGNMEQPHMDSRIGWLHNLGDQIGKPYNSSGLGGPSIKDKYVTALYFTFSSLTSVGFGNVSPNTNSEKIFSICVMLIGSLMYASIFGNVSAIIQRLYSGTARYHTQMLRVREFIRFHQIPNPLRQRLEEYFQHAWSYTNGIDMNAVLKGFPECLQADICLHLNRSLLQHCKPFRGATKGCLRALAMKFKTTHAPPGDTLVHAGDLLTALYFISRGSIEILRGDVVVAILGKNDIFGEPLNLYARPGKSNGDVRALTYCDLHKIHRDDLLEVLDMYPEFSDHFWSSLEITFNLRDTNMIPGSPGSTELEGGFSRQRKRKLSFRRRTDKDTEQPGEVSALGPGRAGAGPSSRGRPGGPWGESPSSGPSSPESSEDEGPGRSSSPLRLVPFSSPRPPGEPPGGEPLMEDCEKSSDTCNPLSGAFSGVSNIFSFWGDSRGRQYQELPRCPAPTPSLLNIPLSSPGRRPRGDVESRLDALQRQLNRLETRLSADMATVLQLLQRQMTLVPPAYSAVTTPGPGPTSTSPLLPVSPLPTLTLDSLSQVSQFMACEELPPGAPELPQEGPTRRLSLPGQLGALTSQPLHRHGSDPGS
# HeLa = assay: ATP-based viability loss in HeLa cells – cell-based, CellTiter-Glo luminescence, cherry-pick samples, cytotoxicity control for MITF activator project, dose response (AID 540259); assay type: functional; details: Homo sapiens
structure (smiles),measurement,setting,value
Oc1ccccc1N=Nc1nc(-c2ccccc2)c(-c2ccccc2)[nH]1,IC50,Vero [1],> 25 µM (active)
same,EC50,BJ [2],0.118 µM (active)
same,EC50,Streptococcus,1.05 µM (active)
same,EC50,BJ [3],1.67 µM (active)
same,EC50,cells [4],0.355 µM (active)
same,IC50,[5],0.82 µM (active)
same,IC50,[6],> 119 µM (inactive)
same,CC50,Vero [7],0.06 µM (active)
same,IC50,[8],0.533 µM (active)
same,IC50,Exodeoxyribonuclease V,> 119 µM (inactive)
same,EC50,BJ [9],0.951 µM (active)
same,EC50,[10],0.282 µM (active)
same,IC50,[11],> 80 µM (inactive)
same,EC50,[12],0.278 µM (active)
same,EC50,[13],0.507 µM (active)
same,EC50,[14],26 µM (active)
same,EC50,[15],< 0.1 µM (active)
same,EC50,BJ [16],0.643 µM (inconclusive)
same,EC50,[17],0.515 µM (active)
same,AC50,[18],2.29 µM (active)
same,EC50,[19],< 0.1 µM (active)
same,EC50,[20],0.103 µM (active)
Cc1ccccc1OCC(O)Cn1c(=N)n(Cc2ccccc2)c2ccccc21 (stereo not drawn),EC50,Mu-type opioid receptor,> 92.5 µM (inactive)
same,EC50,[21],> 92.5 µM (inactive)
same,CC50,[22],19.9 µM (active)
same,AC50,[23],11.2 µM (active)
same,CC50,[24],8.06 µM (active)
same,EC50,[25],1.06 µM (active)
same,EC50,[26],> 30 µM (not active)
same,EC50,[27],3.35 µM (active)
same,CC50,[28],7.48 µM (active)
same,EC50,[29],> 92.5 µM (inactive)
same,IC50,cells [30],18.5 µM (active)
same,EC50,[31],2.75 µM (active)
same,AC50,[32],1.49 µM (active)
same,AC50,[33],2.25 µM (active)
Cc1cccc(C)c1OCC(N)C(C)C (stereo not drawn),AC50,[34],35.5 µM (inconclusive)
Nc1ccc(CSc2ccc(Cl)cc2)c(Cl)c1,AC50,HeLa,75.6 µM (active)
